Measurements reported in patent US20030186817A1, “SUBSTITUTED 2,4-DIAMINO-1,3,5-TRIAZINES, PROCESSES FOR THEIR PREPARATION AND THEIR USE AS HERBICIDES AND PLANT GROWTH REGULATORS” (priority 1998, published 2003).

Test system: Cyperus iria and Echinocloa crus-galli
Assay: Action on weeds in rice (paddy rice conditions, visual rating); further: test concentration or dose not given here
Type: in vivo
Settings: dammed height of water 2-3 cm, about three weeks after application
Source text: Typical rice weeds such as Echinocloa crus galli and Cyperus iria are cultivated in a greenhouse under paddy rice conditions ([…] height of water: 2-3 cm). After the treatment, the test plants are set up in a greenhouse under optimum growth conditions and are maintained in this way under these conditions throughout the test period. About three weeks after application, evaluation is made by visual rating of the damage to the plants by comparison with untreated controls.

Structure (SMILES) | herbicidal activity against rice weeds (visual rating of damage)
CC(CCOc1cc(F)cc(F)c1)Nc1nc(N)nc(C(C)(C)F)n1 (stereo not drawn) [Example 207] | very good herbicidal activity
CCC(COC(=O)c1ccccc1C)Nc1nc(N)nc(C(C)C)n1 (stereo not drawn) [Example 42] | very good herbicidal activity
COc1cccc(OCCC(C)Nc2nc(N)nc(C(C)C)n2)c1 (stereo not drawn) [Example 213] | very good herbicidal activity
CCC(CCOc1cccc(Cl)c1)Nc1nc(N)nc(C(C)C)n1 (stereo not drawn) [Example 372] | very good herbicidal activity
CCC(CCOc1cccc(Cl)c1)Nc1nc(N)nc(C(C)F)n1 (stereo not drawn) [Example 220] | very good herbicidal activity
CCC(CCOc1cccc(OC)c1)Nc1nc(N)nc(C(C)(C)F)n1 (stereo not drawn) [Example 384] | very good herbicidal activity
Cc1ccccc1C(=O)OCC(C)Nc1nc(N)nc(C(C)C)n1 (stereo not drawn) [Example 41] | very good herbicidal activity
CC(CCOc1ccccc1)Nc1nc(N)nc(C(C)C)n1 (stereo not drawn) [Example 336] | very good herbicidal activity
CC(CCOc1cccc(F)c1)Nc1nc(N)nc(C(C)(C)F)n1 (stereo not drawn) [Example 308] | very good herbicidal activity
CCC(CCOc1cccc(Cl)c1)Nc1nc(N)nc(C(F)(F)C(F)F)n1 (stereo not drawn) [Example 347] | very good herbicidal activity
COc1cccc(OCCC(C)Nc2nc(N)nc(C(F)(F)C(F)F)n2)c1 (stereo not drawn) [Example 311] | very good herbicidal activity
CCC(CCOc1ccccc1)Nc1nc(N)nc(C(C)(C)F)n1 (stereo not drawn) [Example 369] | very good herbicidal activity
CCC(CCOc1cccc(F)c1)Nc1nc(N)nc(C(C)(C)F)n1 (stereo not drawn) [Example 222] | very good herbicidal activity
CCC(CCOc1cccc(OC)c1)Nc1nc(N)nc(C(C)C)n1 (stereo not drawn) [Example 376] | very good herbicidal activity
COc1cccc(OCCC(C)Nc2nc(N)nc(C(C)(C)F)n2)c1 (stereo not drawn) [Example 303] | very good herbicidal activity
CC(CCOc1cc(F)cc(F)c1)Nc1nc(N)nc(C(C)C)n1 (stereo not drawn) [Example 281] | very good herbicidal activity
CC(CCOc1ccccc1)Nc1nc(N)nc(C(C)(C)F)n1 (stereo not drawn) [Example 368, 2-amino-4-fluoroisopropyl-6-[N-(1-methyl-3-phenoxyprop-1-yl)amino]-1,3,5-triazine] | very good herbicidal activity
Cc1ccc(COCC(C)Nc2nc(N)nc(C(C)(C)F)n2)cc1 (stereo not drawn) [Example 183] | very good herbicidal activity
Cc1cccc(OCCC(C)Nc2nc(N)nc(C(C)(C)F)n2)c1 (stereo not drawn) [Example 253] | very good herbicidal activity
CCC(CCOc1cccc(OC)c1)Nc1nc(N)nc(C(F)(F)C(F)F)n1 (stereo not drawn) [Example 228] | very good herbicidal activity
CC(CCOc1cccc(Cl)c1)Nc1nc(N)nc(C(C)(C)F)n1 (stereo not drawn) [Example 299] | very good herbicidal activity
CCC(CCOc1cc(F)cc(F)c1)Nc1nc(N)nc(C(C)(C)F)n1 (stereo not drawn) [Example 370] | very good herbicidal activity

Test system: Stellaria media, Amaranthus retroflexus, Sinapis avreuse, Avena fatura, Lolium multiflorum and Setaria viridis
Assay: Post-emergence action against weeds (greenhouse pot test, visual rating)
Type: in vivo
Settings: three-leaf stage, application rate of 3.0 kg or less of active substance per hectare, 3 to 4 weeks in greenhouse
Method: Seeds of mono- and dicotyledonous weeds are placed in sandy loam soil in cardboard pots, covered with soil and cultivated in a greenhouse under good growth conditions. Two to three weeks after sowing, the test plants are treated at the three-leaf stage. The novel compounds, formulated as wettable powders or emulsion concentrates, are sprayed in various dosages onto the green parts of the plant at an application rate of from 600 to 8001 of water/ha (converted), and, after the test plants have remained in the greenhouse for 3 to 4 weeks under optimum growth conditions, the action of the preparations is rated visually by comparison with untreated controls. The novel compositions also have good post-emergence herbicidal activity against a broad spectrum of economically important weed grasses and broad-leaved weeds.

Structure (SMILES) | herbicidal activity post-emergence (rated visually)
CC(CCOc1cc(F)cc(F)c1)Nc1nc(N)nc(C(C)(C)F)n1 (stereo not drawn) [Example 207] | good and in most cases very good herbicidal activity
CCC(COC(=O)c1ccccc1C)Nc1nc(N)nc(C(C)C)n1 (stereo not drawn) [Example 42] | good and in most cases very good herbicidal activity
COc1cccc(OCCC(C)Nc2nc(N)nc(C(C)C)n2)c1 (stereo not drawn) [Example 213] | good and in most cases very good herbicidal activity
CCC(CCOc1cccc(Cl)c1)Nc1nc(N)nc(C(C)C)n1 (stereo not drawn) [Example 372] | good and in most cases very good herbicidal activity
CCC(CCOc1cccc(Cl)c1)Nc1nc(N)nc(C(C)F)n1 (stereo not drawn) [Example 220] | good and in most cases very good herbicidal activity
CCC(CCOc1cccc(OC)c1)Nc1nc(N)nc(C(C)(C)F)n1 (stereo not drawn) [Example 384] | good and in most cases very good herbicidal activity
Cc1ccccc1C(=O)OCC(C)Nc1nc(N)nc(C(C)C)n1 (stereo not drawn) [Example 41] | good and in most cases very good herbicidal activity
CC(CCOc1ccccc1)Nc1nc(N)nc(C(C)C)n1 (stereo not drawn) [Example 336] | good and in most cases very good herbicidal activity
CC(CCOc1cccc(F)c1)Nc1nc(N)nc(C(C)(C)F)n1 (stereo not drawn) [Example 308] | good and in most cases very good herbicidal activity
CCC(CCOc1cccc(Cl)c1)Nc1nc(N)nc(C(F)(F)C(F)F)n1 (stereo not drawn) [Example 347] | good and in most cases very good herbicidal activity
COc1cccc(OCCC(C)Nc2nc(N)nc(C(F)(F)C(F)F)n2)c1 (stereo not drawn) [Example 311] | good and in most cases very good herbicidal activity
CCC(CCOc1ccccc1)Nc1nc(N)nc(C(C)(C)F)n1 (stereo not drawn) [Example 369] | good and in most cases very good herbicidal activity
CCC(CCOc1cccc(F)c1)Nc1nc(N)nc(C(C)(C)F)n1 (stereo not drawn) [Example 222] | good and in most cases very good herbicidal activity
CCC(CCOc1cccc(OC)c1)Nc1nc(N)nc(C(C)C)n1 (stereo not drawn) [Example 376] | good and in most cases very good herbicidal activity
COc1cccc(OCCC(C)Nc2nc(N)nc(C(C)(C)F)n2)c1 (stereo not drawn) [Example 303] | good and in most cases very good herbicidal activity
CC(CCOc1cc(F)cc(F)c1)Nc1nc(N)nc(C(C)C)n1 (stereo not drawn) [Example 281] | good and in most cases very good herbicidal activity
CC(CCOc1ccccc1)Nc1nc(N)nc(C(C)(C)F)n1 (stereo not drawn) [Example 368, 2-amino-4-fluoroisopropyl-6-[N-(1-methyl-3-phenoxyprop-1-yl)amino]-1,3,5-triazine] | good and in most cases very good herbicidal activity
Cc1ccc(COCC(C)Nc2nc(N)nc(C(C)(C)F)n2)cc1 (stereo not drawn) [Example 183] | good and in most cases very good herbicidal activity
Cc1cccc(OCCC(C)Nc2nc(N)nc(C(C)(C)F)n2)c1 (stereo not drawn) [Example 253] | good and in most cases very good herbicidal activity
CCC(CCOc1cccc(OC)c1)Nc1nc(N)nc(C(F)(F)C(F)F)n1 (stereo not drawn) [Example 228] | good and in most cases very good herbicidal activity
CC(CCOc1cccc(Cl)c1)Nc1nc(N)nc(C(C)(C)F)n1 (stereo not drawn) [Example 299] | good and in most cases very good herbicidal activity
CCC(CCOc1cc(F)cc(F)c1)Nc1nc(N)nc(C(C)(C)F)n1 (stereo not drawn) [Example 370] | good and in most cases very good herbicidal activity

Test system: Stellaria media, Amaranthus retroflexus, Sinapis avreuse, Avena fatura, Lolium multiflorum and Setaria viridis
Assay: Pre-emergence action against weeds (greenhouse pot test, visual rating)
Type: in vivo
Settings: application rate of 3.0 kg or less of active substance per hectare, trial period of 3 to 4 weeks
Source text: Seeds of mono- and dicotyledonous weed plants are placed in sandy loam soil in cardboard pots and covered with soil. The novel compounds, formulated as wettable powders or emulsion concentrates, are then applied to the surface of the soil cover in the form of an aqueous suspension or emulsion at an application rate of from 600 to 800 l of water/ha (converted), in various dosages. After the treatment, the pots are placed in a greenhouse and kept under good growth conditions for the weeds. After the test plants have emerged after a trial period of 3 to 4 weeks, the damage to the plants or the negative effect on emergence is rated visually by comparison with untreated controls. As shown by the test results, the novel compounds have good herbicidal pre-emergence activity against a broad spectrum of weed grasses and broad-leaved weeds.

Structure (SMILES) | herbicidal activity pre-emergence (damage to the plants or negative effect on emergence, rated visually)
CC(CCOc1cc(F)cc(F)c1)Nc1nc(N)nc(C(C)(C)F)n1 (stereo not drawn) [Example 207] | good and in most cases very good herbicidal activity
CCC(COC(=O)c1ccccc1C)Nc1nc(N)nc(C(C)C)n1 (stereo not drawn) [Example 42] | good and in most cases very good herbicidal activity
COc1cccc(OCCC(C)Nc2nc(N)nc(C(C)C)n2)c1 (stereo not drawn) [Example 213] | good and in most cases very good herbicidal activity
CCC(CCOc1cccc(Cl)c1)Nc1nc(N)nc(C(C)C)n1 (stereo not drawn) [Example 372] | good and in most cases very good herbicidal activity
CCC(CCOc1cccc(Cl)c1)Nc1nc(N)nc(C(C)F)n1 (stereo not drawn) [Example 220] | good and in most cases very good herbicidal activity
CCC(CCOc1cccc(OC)c1)Nc1nc(N)nc(C(C)(C)F)n1 (stereo not drawn) [Example 384] | good and in most cases very good herbicidal activity
Cc1ccccc1C(=O)OCC(C)Nc1nc(N)nc(C(C)C)n1 (stereo not drawn) [Example 41] | good and in most cases very good herbicidal activity
CC(CCOc1ccccc1)Nc1nc(N)nc(C(C)C)n1 (stereo not drawn) [Example 336] | good and in most cases very good herbicidal activity
CC(CCOc1cccc(F)c1)Nc1nc(N)nc(C(C)(C)F)n1 (stereo not drawn) [Example 308] | good and in most cases very good herbicidal activity
CCC(CCOc1cccc(Cl)c1)Nc1nc(N)nc(C(F)(F)C(F)F)n1 (stereo not drawn) [Example 347] | good and in most cases very good herbicidal activity
COc1cccc(OCCC(C)Nc2nc(N)nc(C(F)(F)C(F)F)n2)c1 (stereo not drawn) [Example 311] | good and in most cases very good herbicidal activity
CCC(CCOc1ccccc1)Nc1nc(N)nc(C(C)(C)F)n1 (stereo not drawn) [Example 369] | good and in most cases very good herbicidal activity
CCC(CCOc1cccc(F)c1)Nc1nc(N)nc(C(C)(C)F)n1 (stereo not drawn) [Example 222] | good and in most cases very good herbicidal activity
CCC(CCOc1cccc(OC)c1)Nc1nc(N)nc(C(C)C)n1 (stereo not drawn) [Example 376] | good and in most cases very good herbicidal activity
COc1cccc(OCCC(C)Nc2nc(N)nc(C(C)(C)F)n2)c1 (stereo not drawn) [Example 303] | good and in most cases very good herbicidal activity
CC(CCOc1cc(F)cc(F)c1)Nc1nc(N)nc(C(C)C)n1 (stereo not drawn) [Example 281] | good and in most cases very good herbicidal activity
CC(CCOc1ccccc1)Nc1nc(N)nc(C(C)(C)F)n1 (stereo not drawn) [Example 368, 2-amino-4-fluoroisopropyl-6-[N-(1-methyl-3-phenoxyprop-1-yl)amino]-1,3,5-triazine] | good and in most cases very good herbicidal activity
Cc1ccc(COCC(C)Nc2nc(N)nc(C(C)(C)F)n2)cc1 (stereo not drawn) [Example 183] | good and in most cases very good herbicidal activity
Cc1cccc(OCCC(C)Nc2nc(N)nc(C(C)(C)F)n2)c1 (stereo not drawn) [Example 253] | good and in most cases very good herbicidal activity
CCC(CCOc1cccc(OC)c1)Nc1nc(N)nc(C(F)(F)C(F)F)n1 (stereo not drawn) [Example 228] | good and in most cases very good herbicidal activity
CC(CCOc1cccc(Cl)c1)Nc1nc(N)nc(C(C)(C)F)n1 (stereo not drawn) [Example 299] | good and in most cases very good herbicidal activity
CCC(CCOc1cc(F)cc(F)c1)Nc1nc(N)nc(C(C)(C)F)n1 (stereo not drawn) [Example 370] | good and in most cases very good herbicidal activity
